Test in all cases: growth of human tumour cells (NCI), 48 h
Assay [1] concerns BT-549.
The test system of assay [2] is KM-20L2.
The subject of assay [3] is DMS-114.
For assay [4], the system named is M19-MEL.
Assay [5] deals with HOP-18.
The test system of assay [6] is SNB-78.
Assay [7] has as its system XF498.
Assay [8] concerns LXFL 529.

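Test compounds were applied to cells in 96-well plates for 48 hours at 5 doses. GI50 is the concentration that inhibits growth by half.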 Active and inactive are the calls of the source. Cut-off read from the data, not from the text of the source: active = GI50 up to about 1.1 µM and inactive = higher.

Turning to `CN1CCOC(c2ccc(Cl)cc2)O1` (centres undefined), in assay [1], the GI50 is > 100 µM (inactive).
The same measure, in the same setting: next, `CN(CCC#N)c1ccc(/C=C2\SC(=S)NC2=O)cc1`: 21.7 µM (inactive).
On the same count and under the same terms, next, `O=P1(c2ccccc2)C2=CCC=CC2C(c2ccccc2)N1Cc1ccccc1` (centres undefined): 17.4 µM (inactive); `CCOC(=O)c1nc2cc(C(F)(F)F)ccc2nc1Oc1ccc(OC)cc1`: > 100 µM (inactive).
Consider `CSCCC(NC(=O)C(Cc1ccccc1)NC(=O)CNC(=O)CNC(=O)C(N)Cc1ccc(O)cc1)C(=O)O` (centres undefined), for which the GI50 in assay [2] is > 20.3 µM (inactive); in assay [3], > 100 µM (inactive); in assay [4], > 100 µM (inactive); in assay [5], > 100 µM (inactive); in assay [6] it was > 100 µM (inactive).
`Cc1sc2nc3n(c(=O)c2c1C)N=CN(c1ccc(F)cc1)C3`: in assay [1], the GI50 is > 100 µM (inactive).
Still for that read-out and setting: next, `CSc1nc(C)c2c(n1)SCC2`: > 10 µM (inactive); `CCCCCC(O)C1C(=O)OC(C)C(O)/C=C/C=C/C=C/C=C\C=C(\C)C(O)CC(O)CC(O)CC(O)CC(O)CC(O)CC1O` (centres undefined): > 50 µM (inactive).
Still for that read-out and setting: next, `Cc1cc(C)c2c(O)cc(-c3ccc(F)cc3)nc2n1`: 65.8 µM (inactive).
In the case of `C[C@@H](N[C@H]1CCC[C@@H]1O)c1ccccc1.C[C@@H](N[C@H]1CCC[C@H]1O)c1ccccc1`, the GI50 is 38.2 µM (inactive) in assay [2]; > 100 µM (inactive) in assay [3]; > 100 µM (inactive) in assay [4]; 48.8 µM (inactive) in assay [5]; > 100 µM (inactive) in assay [7]; > 100 µM (inactive) in assay [6].
As for `C[C@@H]1OC(=O)/C(=C\N(C)C)[C@H]2CC(=O)N(CCc3cn(S(=O)(=O)C(F)(F)F)c4ccccc34)C[C@H]12`, the GI50 in assay [1] is > 100 µM (inactive).
With `NNC(=S)N/N=C(\CCCC(=O)NCCc1ccccc1)CC(=O)c1ccccc1`, the GI50 in assay [2], in assay [3], in assay [8], in assay [4], in assay [5] and in assay [6] was > 100 µM (inactive) throughout.
As to `O=C(Sc1c(-c2ccccc2)c(=O)n(-c2ccccc2)c(=S)n1-c1ccccc1)c1ccccc1`, in assay [1], the GI50 is 56.1 µM (inactive).
Same read-out and setting: next, `CC(O)C1(CNc2cc(Cl)nc(N)n2)CCCCC1` (centres undefined): 70.1 µM (inactive).
On to `N#CC(/N=N/c1ccccc1)c1nc2ccccc2o1` (centres undefined), for which the GI50 in assay [1] was 20.7 µM (inactive).
Turning to `CCCNC1=C(C)C(=O)C2=C(C1=O)[C@H](COC(N)=O)[C@]1(OC)[C@@H]3N[C@@H]3CN21`, the GI50 in assay [2] is 8.75 µM (inactive); in assay [3] it was 4 µM (inactive); in assay [4], 3.44 µM (inactive); in assay [5], 13.4 µM (inactive); in assay [7], 4.78 µM (inactive); in assay [6] it was 26.9 µM (inactive).
As to `O=C1OC(C2Cc3ccc4ccccc4c3C2=O)c2ccccc21` (centres undefined), in assay [1], the GI50 is 37 µM (inactive).
The same measure, in the same setting: next, `CC1=C/C(=N\NC(N)=S)C(C(O)(C(F)(F)F)C(F)(F)F)C(C)(C)C1` (centres undefined): > 10 µM (inactive).
Still for that read-out and setting: for `OCc1cc2c(ccc3sc4ccc5sc6ccc7ncccc7c6c5c4c32)s1` the value was 14.3 µM (inactive); for `O=C1/C(=C2/CCCN2)C(c2ccc[nH]2)=NN1c1ccccc1`, > 100 µM (inactive); for `Nc1ncnc2c1ncn2C1OC(C(=O)OCCO)C(O)C1O` (centres undefined), > 100 µM (inactive).
With `Nc1c(-c2nc3ccccc3[nH]2)sc(=S)n1-c1ccc(Cl)cc1`, the GI50 was 18.6 µM (inactive) in assay [3]; 32.4 µM (inactive) in assay [4]; 20.8 µM (inactive) in assay [5]; 35.7 µM (inactive) in assay [7]; 30.4 µM (inactive) in assay [6].
For `Cc1cc(N(CCC#N)CCC#N)ccc1/C=C/C(=O)Nc1ccccc1Cl`, the GI50 in assay [2], in assay [3], in assay [8], in assay [4] and in assay [7] was > 100 µM (inactive) each time.
Take `O=C(NC(OCc1ccccc1)(C(F)(F)F)C(F)(F)F)OCc1ccccc1`: the GI50 in assay [1] was 15.4 µM (inactive).
Still for that read-out and setting: next, `Cc1ccc(SC[C@@]2(C(F)F)NC(=O)NC2=O)cc1`: > 100 µM (inactive); `CC(CO)(CO)Nc1ncnc2ccccc12`: > 100 µM (inactive).
The same measure, in the same setting: for `O=C1N/C(=N/N=C\c2ccccc2)N/C1=C/c1ccc(Cl)cc1` the value was 16.5 µM (inactive).
For the compound `O=C(c1cccs1)N(C(=S)N1CCN(c2ccccc2)CC1)C1CCCCC1`, the GI50 in assay [2] was > 100 µM (inactive); in assay [3], 58.2 µM (inactive); in assay [8], > 100 µM (inactive); in assay [4], > 100 µM (inactive); in assay [5] it was > 100 µM (inactive); in assay [6], > 100 µM (inactive).
Regarding `Cc1cccc(=O)c([O-])c1.Cc1cccc(=O)c([O-])c1.[Bi+3].[Cl-]`, the GI50 in assay [2] is 2.99 µM (inactive); in assay [3], 3.3 µM (inactive); in assay [4], 11 µM (inactive); in assay [6], 24 µM (inactive).
In the case of `CC(=O)Nc1ccc2[nH]c(C(=O)N3CC(CCl)c4c3cc([N+](=O)[O-])c3ccccc43)cc2c1` (centres undefined), in assay [1], the GI50 is 3.87 µM (inactive).
The same measure, in the same setting: for `COc1ccc(C2OC[C@H]3O[C@@H](OCc4ccccc4)[C@H](O)[C@@H](O)[C@@H]3O2)cc1` (some centres undefined) the value was > 100 µM (inactive).
Consider `Cc1ccc(C(C)(C)C[P+](C)(c2ccccc2)c2ccccc2)cc1`, for which the GI50 was 6.1 µM (inactive) in assay [2]; 5.25 µM (inactive) in assay [3]; 4.52 µM (inactive) in assay [4]; 6.43 µM (inactive) in assay [5]; 2.88 µM (inactive) in assay [7]; 14.7 µM (inactive) in assay [6].
`CCOC(=O)c1ccc2c(=O)n3c(C(=O)OCC)ccc3c(=O)n12`: the GI50 in assay [1] is > 100 µM (inactive).
As for `CC(=O)O[C@H]1CC[C@@]2(C)C(=CC[C@H]3C4=CC=C(C(C)=O)[C@@]4(C)CCC32)C1` (some centres undefined), the GI50 was 44.1 µM (inactive) in assay [2]; 30.5 µM (inactive) in assay [8]; 36.3 µM (inactive) in assay [4]; > 100 µM (inactive) in assay [5]; 28.2 µM (inactive) in assay [6].
On to `COc1cc(C2SCC(=O)N2c2cc(Cl)c(Cl)cc2Cl)cc(OC)c1OC` (centres undefined), for which, in assay [1], the GI50 was 25.4 µM (inactive).
Same read-out and setting: next, `COc1ccc2c(c1)CC[C@@H]1[C@@H]2CC[C@]2(C)[C@@H](O)/C(=C/c3ccncc3)C[C@@H]12`: 15.7 µM (inactive).
As to `CCCC(O)C(NC(=O)CCl)C(=O)O` (centres undefined), the GI50 in assay [2], in assay [3], in assay [4], in assay [5], in assay [7] and in assay [6] was > 100 µM (inactive) throughout.
`CCCCCOC(=O)c1cc2cc(CCl)ccc2oc1=O`: the GI50 in assay [1] was 11.9 µM (inactive).
On to `CCOC(=O)C1(C/C=C\CBr)CCCCCCC1=O` (centres undefined), for which the GI50 in assay [1] was > 100 µM (inactive).
In the case of `CCOC(NC(=O)CC)(C(F)(F)F)C(F)(F)F`, in assay [1], the GI50 is > 100 µM (inactive).
Take `NC(=O)C1CCCN1C(=O)C(Cc1c[nH]cn1)NC(=O)C1CCCC1` (centres undefined): in assay [1], the GI50 is > 100 µM (inactive).
The same measure, in the same setting: for `Oc1c(C(Nc2ccccn2)c2ccccc2)ccc2cccnc12` (centres undefined) the value was 5.25 µM (inactive); for `CCC(c1c[nH]c2ccc(Br)cc12)c1c[nH]c2ccc(Br)cc12`, 10.3 µM (inactive).
Same read-out and setting: next, `C=C1C[C@@H]2CC[C@@]34CC5O[C@H]6C(O[C@H]7CC[C@H](CC(=O)O[C@@H]8[C@@H](C)[C@@H]9O[C@@H]%10C[C@]%11(C[C@@H]%12O[C@]%13(C[C@H](C)[C@@H]%14O[C@@H]%15CC(C(O)CO)O[C@@H]%15C[C@@H]%14O%13)C[C@H](C)[C@@H]%12O%11)O[C@@H]%10C[C@@H]9O[C@H]8CC8O[C@@H](CC[C@@H]1O2)C[C@@H](C)C8(O)CO)O[C@@H]7[C@@H]6O3)[C@H]5O4` (some centres undefined): 0.00891 µM (active); `O=C1CSC(c2ccc(Cl)cc2)N1c1ccc(Oc2ccc(Cl)cc2)c(Cl)c1` (centres undefined): 15 µM (inactive); `COc1ccc2c(c1)CC[C@@H]1[C@@H]2CC[C@]2(C)C(=O)/C(=C/c3cc(OC)c(OC)c(OC)c3)C[C@@H]12`: 26.3 µM (inactive).
On the same count and under the same terms, for `C=CCN(c1cc(OC)c2[nH]c(C(=O)O)c(C)c2c1[N+](=O)[O-])S(C)(=O)=O` the value was > 100 µM (inactive); for `CO/C(=N\N=C(/C)C(F)(F)F)c1ccncc1`, > 100 µM (inactive); for `C(/C=N/c1ccccc1)=C(/Nc1ccccc1)c1ccc2ccccc2c1`, 1.08 µM (active).
In the case of `COC1/C=C/C(C)C(OC)CC(O)/C=C/C(C)C(C(C)C(OC)C(C)CCC(=O)C(C)C(C/C=C/N(C)C=O)OC)OC(=O)/C=C/C=C(\C)CC(OC)C(OC)C2=CC(=O)O[C@@H](C(C)C(OC)C1)[C@H]2O` (some centres undefined), in assay [1], the GI50 is 0.0578 µM (active).
With `CC(C)CCCC(C)[C@H]1CCC2[C@@H]3CCC4Nc5nocc5C[C@]4(C)C3CC[C@@]21C` (some centres undefined), the GI50 in assay [2] is 21.2 µM (inactive); in assay [8] it was 11.8 µM (inactive); in assay [4], 16.9 µM (inactive); in assay [5], 13.6 µM (inactive); in assay [6], 19.3 µM (inactive).
As to `CN(C)c1nc2nonc2nc1Nc1ccccc1`, the GI50 in assay [1] was > 100 µM (inactive).
As to `COc1ccc(OC)c(CC(C)N)c1` (centres undefined), the GI50 in assay [2], in assay [3], in assay [8], in assay [4], in assay [5] and in assay [7] was > 100 µM (inactive) each time.
Take `CN1C(=O)c2ccccc2OC12C=Cc1c(ccc3ccccc13)O2` (centres undefined): the GI50 in assay [1] was 5.96 µM (inactive).
Consider `COc1ccc(C[C@H](N)C(=O)N2C[C@@H](CO)C[C@@H](n3ccc(=O)[nH]c3=O)C2)cc1`, for which the GI50 in assay [2], in assay [3], in assay [8], in assay [4] and in assay [5] was > 100 µM (inactive) each time.
`O=C1OC(c2ccccc2)=N/C1=C\c1ccc([N+](=O)[O-])cc1`: the GI50 in assay [1] was 15.3 µM (inactive).
On the same count and under the same terms, next, `N#Cc1c2ccc([N+](=O)[O-])cc2c(=O)n2c1sc1ccccc12`: 19.9 µM (inactive).
